# Measured values reported in patent US20140194321A1 (CELLOMICS, INC., priority 2013, published 2014).
# Read-outs that look alike come from different tables or passages of the source.
# How the values were obtained:
# U937 cells [1] = assay: High-content imaging skin sensitizing prediction assay: U937 cells treated 24 h with a range of compound concentrations, CD54 intensity per cell and cell number dose response curves qualified, decision matrix applied; conditions: for CD54/Cell Result: qualified dose response curve (increasing/flat/decreasing) of CD54 intensity per cell; for CD54/Cell Result / Cell Number Result: U937 cells, 24 hours compound treatment, range of concentrations; for Cell Number Result: qualified dose response curve (increasing/flat/decreasing) of number of cells; for Outcome: skin sensitivity prediction from decision matrix of FIG. 8 (CD54/cell vs cell number), Toxic* = at concentrations tested
# Excerpt: (§1) In step 160, the data corresponding to the different compound concentrations is normalized. In one embodiment, measurements generated from the vehicle-treated cell image analysis can be used. […] As such, a normalization of the data obtained from the compound-treated cells can be determined by subtracting the baseline response of the vehicle-treated cells from the measurements of the responses of the compound-treated cells. Measured values of the compound-treated cells that are below baseline levels can be notated as lacking a response, and can be ignored in further analysis, if desired.
# (§2) This can be done by calculating a mean value for the measured target at each concentration level, taking into account all of the samples corresponding to the particular concentration level.
# (§3) For example, mean values for gross markers can be computed for the number of cells using either the number of cell bodies or the number of nuclei detected. For specific markers, mean values can be computed for each of the features (e.g., CD54 (ICAM-1) intensity). […] Other mean values can also be used. In addition, other representative values can also be used for each concentration of the compound, such as a highest measured value, a lowest measured value, or other representative values.
# (§4) This can be done by plotting on a graph the average value of the target for each concentration. […] Using the plotted points, a simple curve 170 can be generated, as shown. This simple curve represents the dose response curve.
# (§5) In one embodiment, qualifying the dose response curve can be accomplished by categorizing the curve as “increasing,” “decreasing,” or “flat.”
# (§6) The predefined range can be determined using a standard deviation value, a percentage of total range, or a percentage of highest value. […] In the experimental results, discussed below, the predefined range was determined using a percentage of the highest value for the curve.
# (§7) In step 170, a decision matrix is applied to the qualified dose response of one or more of the measured parameters to predict skin sensitization. The qualified dose response of any of the measured cellular targets can be used. For example, the cellular targets used in the decision matrix can be selected from the gross markers, specific markers and/or the functional response of the cells. Using the selected properties, a decision matrix can be constructed based upon the expected behavior of the cell type in response to the compound used. The dose response curve behavior (e.g., “increasing,” “flat,” or “decreasing”) of the measured cellular properties can then be used to determine the prediction of sensitizing capability of the compound. In some embodiments, the decision matrix can also be used to determine if the compound is toxic.
# (§8) To determine a predicted skin sensitivity of a tested compound, one simply finds the matrix location corresponding to both of the qualified dose responses determined for the tested compound, and the entry within that matrix location identifies the predicted skin sensitivity of the compound.
# (§9) The compounds for which skin sensitivity is desired can then be introduced to the immune effector cells. For each concentration level of each compound, 100 μl of the 2× concentrated compound solution can be added to the corresponding wells. Similarly, 100 μl of vehicle solution can be added to the vehicle control wells and the 2× solution of the negative and positive controls can be added to the negative and positive control wells, respectively. The plate can then be incubated for 24 hours at 37° C. in 5% CO2.
# (§10) After incubation, the plate can be centrifuged for 5 minutes at 125×g. The media can then be aspirated from the wells after which 50 μl of pre-warmed (e.g., to 37° C.) 4% paraformaldehyde can be added to each well.
# U937 cells [2] = test system: U937 cells
# Excerpt: as §1, §2, §3, §4, §5, §6, §7, §8, §9, §10
Compound,CD54/Cell Result (U937 cells [1]),Cell Number Result (U937 cells [1]),Outcome (U937 cells [1]),Outcome (U937 cells [2])
Butanol,Flat,Increase,,
NCCNc1ccccc1 [Phenylethylenediamine],Decrease,Increase,Non-sensitizer,
C=CC(=O)OCCO [2hydroxyethylacrylate],Increase,Increase,Sensitizer,
CC(C)O [Isopropanol],Decrease,,Non-sensitizer,
C[S+](C)[O-] [DMSO],Decrease,Increase,,Non-sensitizer
CCCCCCCCCCCCOS(=O)(=O)[O-].[Na+] [Sodium Lauryl Sulfate],Increase,Increase,Sensitizer,
CN(C)C=O [DMF],Increase,Increase,,Sensitizer
O=C(O)c1ccccc1O [Salicylic Acid],Decrease,Decrease,Toxic*,
CC(O)CO (centres unmarked) [Propylene Glycol],Decrease,Flat,Non-sensitizer,
CCCCCCCC(=O)O [Octanoic Acid],Increase,Increase,Sensitizer,
O=Cc1ccccc1 [Benzylaldehyde],Increase,Increase,Sensitizer,
N#CCCC(Br)(C#N)CBr (centres unmarked) [2bromo-2bromomethylglutaronitrile],Decrease,,Toxic*,
OCC(O)CO [Glycerol],Flat,,Non-sensitizer,
CCOc1cc(C=O)ccc1O [Ethyl Vanillin],Decrease,Decrease,,Toxic*
CCO [Ethanol],Decrease,Increase,Non-sensitizer,
CCOC(=O)c1ccccc1C(=O)OCC [Diethyl Phthalate],Decrease,Decrease,Toxic*,
CC(C)=CCC/C(C)=C/CO [Geraniol],Increase,Increase,Sensitizer,
O=CC=O [Glyoxal],Increase,Decrease,Sensitizer,
CC(C)=O [Acetone],Increase,Decrease,Sensitizer,
CCCCCCCC/C=C\CCCCCCCC(=O)OCCOCC(OCCO)C1OCC(OCCO)C1OCCO (centres unmarked) [Tween 80],Decrease,Increase,Non-sensitizer,
CC(O)C(=O)O (centres unmarked) [Lactic Acid],Decrease,Decrease,Toxic*,
Nc1ccccc1O [2-aminophenol],Increase,Increase,Sensitizer,
